{"source": "patent US11773086B2", "about": "“Fungal modulators” (TRUSTEES OF BOSTON UNIVERSITY, priority 2020, dated 2023)", "key": {"C. albicans": {"tested_on": "C. albicans", "experiment": "Checkerboard with fluconazole, clinical isolates CaCi-2 and CaCi-17", "format": "cell-based, Candida albicans", "description": "FIG. 9A depicts checkerboard assays as described in FIG. 2B and performed with isolates of C. albicans. CaCi-2 and CaCi-17 represent early and late clinical isolates in which FLC resistance evolved over time. Growth was measured at 24 hours using OD600 and normalized to a no drug control well (see color bar). FIG. 9B depicts dose response assays conducted in YPD medium with a C. albicans parental strain, and strains with gain of function mutations in TAC1 as indicated. FLC was tittered in a two-fold dilution on the x-axis in the absence and presence of 50 μM azoffluxin. Growth was measured at 24 hours using OD600 and normalized to a no drug control well (see color bar). […] FIGS. 9D and 9E depict the intracellular concentrations of FLC and azoffluxin measured after treatment (combo treatment at 6.25 μM azoffluxin and 8 μg/mL FLC) for 1 hour by LC-MS. […] Significance was determined by an unpaired student t-test of each combination to the respective compound alone treatment, (*) indicates a p-value<0.05 and (**) indicates a p-value<0.01.\nCompound potency was assessed alone by dose response assays or in combination with another compound by dose-response matrixes in 96-well plates, or 384-well, flat-bottom, microtiter plates (Corning) as previously described. […] Growth was quantified by measuring OD600 and corrected for medium background. […]"}, "[1]": {"experiment": "Single dose plasma pharmacokinetic profile", "format": "in vivo, mice", "details": "mouse"}, "C. auris [2]": {"tested_on": "C. auris", "experiment": "Dose-response of other antifungal compounds with or without 50 μM azoffluxin", "format": "cell-based, Candida auris", "details": "48 hours, YPD", "description": "FIGS. 7A and 7B illustrates that azoffluxin potentiates intracellular acting compounds against C. auris, to a similar degree as deletion of CDR1. […] Cells were then imaged on the DIC and DsRed channels at equivalent exposure times as those in FIG. 5A. FIG. 7B depicts a dose response assays conducted with a C. auris parental strain in the absence and presence of 50 μM azoffluxin where indicated, as well as with a strain with the efflux pump gene CDR1 deleted. Indicated compounds were titered in a two-fold dilution on the x-axis. Growth was measured after 48 hours in YPD using OD600 and normalized to a no drug control well (see color bar).\n(§1) Compound potency was assessed alone by dose response assays or in combination with another compound by dose-response matrixes in 96-well plates, or 384-well, flat-bottom, microtiter plates (Corning) as previously described. Plates were incubated at 30° C. for the indicated time period. Growth was quantified by measuring OD600 and corrected for medium background. All strains were assessed in biological duplicate experiments with technical duplicates. Growth was normalized to untreated controls and plotted as a heat map using Java TreeView 1.1.6r4. For dose-response matrixes fractional inhibitory concentration index at 90% growth inhibition (FICI90) was calculated as previously described. […]"}, "C. auris [3]": {"tested_on": "C. auris", "experiment": "microbe, parasite or virus in culture", "format": "cell-based, Candida auris", "details": "50 μM azoffluxin, Etest", "description": "FIGS. 2A-2E illustrate the above-described screening of the BU-CMD which identified azoffluxin as a fluconazole (FLC) potentiator against C. auris. […] Growth, as determined by optical density at 600 nm (OD600), is plotted in the presence of each CMD compound alone on the y-axis and in combination with FLC on the x-axis. Dotted lines represent 7-median absolute deviations from the median for each condition. […] FIG. 2B depicts the synergistic interactions. […] Growth was measured by the OD600 and normalized to the no drug control (see color bar). The fractional inhibitory concentration index (FICI) was calculated to determine the chemical interaction, with a value below 0.5 indicating synergy. […] FIG. 2D depicts FLC Etest strips in the presence and absence of 50 μM azoffluxin. A total of 1×10^6 C. auris cells were added to YPD agar plates, the E-test strip was added, and plates were incubated at 30° C. for 24 hours prior to imaging. FIG. 2. […] Dose-response assay where a two-fold dilution of azoffluxin was titered starting from 50 μM. Indicated titrations have a background concentration of FLC of 32 μg/mL, 4 μg/mL, 0.25 μg/mL, and 0.5 μg/mL for C. auris Ci6684 (Erg11Y132F), C. albicans (SN95), C. glabrata (BG2) or S. cerevisiae (BY4741), respectively. […] Dose response assays were incubated for 48 hours at 30° C. in RPMI. Growth in each well was plotted by the relative optical density to the respective no drug control (See color bar in FIG. 2B).\nas §1, with “Growth was normalized to untreated controls and plotted as a heat map using Java TreeView 1.1.6r4.” left out"}}}
{"smiles": "C=C(C)C[C@@H](O)COc1cc2c(cc1C1(c3cc4c(cc3OC[C@H](O)CC(=C)C)OCO4)C(=O)Nc3cc(F)ccc31)OCO2", "note": "[CMLD012336]", "values": [{"measurement": "potentiation of fluconazole", "setting": "C. albicans; early clinical isolate CaCi-2", "value": "No potentiation"}, {"measurement": "potentiation of fluconazole", "setting": "C. albicans; late clinical isolate CaCi-17", "value": "did potentiate fluconazole"}, {"measurement": "half-life", "setting": "[1]", "value": 2.6, "unit": "h"}, {"measurement": "sensitivity to caspofungin and amphotericin B", "setting": "C. auris [2]", "value": "no impact on sensitivity"}, {"measurement": "sensitization to gepinacin, cerulenin, and cycloheximide", "setting": "C. auris [2]", "value": "to the same extent as CDR1 deletion"}, {"measurement": "fluconazole MIC in presence of azoffluxin", "setting": "C. auris [3]", "value": 16, "unit": "µg/mL"}, {"measurement": "reduction of fluconazole MIC", "setting": "C. auris [3]; solid medium", "value": "> 16", "unit": "fold"}]}
